Data from ChEMBL document CHEMBL1697731, “Cheminformatics analysis of assertions mined from literature that describe drug-induced liver injury in different species” (Chem Res Toxicol, 2010).

Legend:
Hepatotoxicity [1] = assay: Literature-mined compound from Fourches et al multi-species drug-induced liver injury (DILI) dataset, effect in humans; details: human
Hepatotoxicity [2] = assay: Literature-mined compound from Fourches et al multi-species drug-induced liver injury (DILI) dataset, effect in rodents; details: rodentia
Hepatotoxicity [3] = assay: Literature-mined compound from Fourches et al multi-species drug-induced liver injury (DILI) dataset, effect in non-rodents

Row | SMILES | Hepatotoxicity (Hepatotoxicity [1]) | Hepatotoxicity (Hepatotoxicity [2]) | Hepatotoxicity (Hepatotoxicity [3]) | Hepatotoxicity (Hepatotoxicity [1]; Liver) | Hepatotoxicity (Hepatotoxicity [2]; Liver) | Hepatotoxicity (Hepatotoxicity [3]; Liver)
1 | CCCC(C)C1(CC)C(=O)NC(=O)NC1=O (stereo not drawn) [PENTOBARBITAL] | drug-induced liver injury reported | drug-induced liver injury reported | drug-induced liver injury reported | – | – | –
2 | CC(=O)CCCCn1c(=O)c2c(ncn2C)n(C)c1=O [PENTOXIFYLLINE] | drug-induced liver injury reported | drug-induced liver injury reported | drug-induced liver injury reported | – | – | –
3 | CN1CCN(CCCN2c3ccccc3Sc3ccccc32)CC1 [PERAZINE] | drug-induced liver injury reported | no drug-induced liver injury reported | no drug-induced liver injury reported | – | – | –
4 | Clc1c(Cl)c(Cl)c(Cl)c(Cl)c1Cl [PERCHLOROBENZENE] | drug-induced liver injury reported | drug-induced liver injury reported | no drug-induced liver injury reported | – | – | –
5 | FC(F)(F)C(F)(F)C(F)(F)C(F)(F)C(F)(F)C(F)(F)C(F)(F)C(F)(F)Br [PERFLUBRON] | drug-induced liver injury reported | no drug-induced liver injury reported | drug-induced liver injury reported | – | – | –
6 | CCC[C@H](N[C@@H](C)C(=O)N1[C@H](C(=O)O)C[C@@H]2CCCC[C@@H]21)C(=O)OCC [PERINDOPRIL] | drug-induced liver injury reported | drug-induced liver injury reported | no drug-induced liver injury reported | – | – | –
7 | CC1(C)C(C=C(Cl)Cl)C1C(=O)OCc1cccc(Oc2ccccc2)c1 (stereo not drawn) [PERMETHRIN] | no drug-induced liver injury reported | drug-induced liver injury reported | no drug-induced liver injury reported | – | – | –
8 | OCCN1CCN(CCCN2c3ccccc3Sc3ccc(Cl)cc32)CC1 [PERPHENAZINE] | no drug-induced liver injury reported | drug-induced liver injury reported | no drug-induced liver injury reported | – | – | –
9 | CCOc1ccc(NC(C)=O)cc1 [PHENACETIN] | drug-induced liver injury reported | drug-induced liver injury reported | no drug-induced liver injury reported | – | – | –
10 | NNCCc1ccccc1 [PHENELZINE] | – | – | – | drug-induced liver injury reported | drug-induced liver injury reported | no drug-induced liver injury reported
11 | [H]/N=C(/N)N/C(=N/[H])NCCc1ccccc1 [PHENFORMIN] | no drug-induced liver injury reported | drug-induced liver injury reported | no drug-induced liver injury reported | – | – | –
12 | CCC1(c2ccccc2)C(=O)NC(=O)NC1=O [PHENOBARBITAL] | drug-induced liver injury reported | drug-induced liver injury reported | drug-induced liver injury reported | – | – | –
13 | O=C1OC(c2ccc(O)cc2)(c2ccc(O)cc2)c2ccccc21 [PHENOLPHTHALEIN] | no drug-induced liver injury reported | drug-induced liver injury reported | no drug-induced liver injury reported | – | – | –
14 | Oc1ccccc1 [PHENOL] | – | – | – | drug-induced liver injury reported | drug-induced liver injury reported | no drug-induced liver injury reported
15 | CC(COc1ccccc1)N(CCCl)Cc1ccccc1 (stereo not drawn) [PHENOXYBENZAMINE] | no drug-induced liver injury reported | drug-induced liver injury reported | no drug-induced liver injury reported | – | – | –
16 | CCC(c1ccccc1)c1c(O)c2ccccc2oc1=O (stereo not drawn) [PHENPROCOUMON] | drug-induced liver injury reported | no drug-induced liver injury reported | no drug-induced liver injury reported | – | – | –
